Measured values as given in patent US20250025451A1, “TREATMENT OF CANCER WITH KDM4 INHIBITORS” (Celgene Corporation, priority 2021, published 2025).

Tested on: 301 cancer cell lines from different tumor types
Assay: 2D cell viability inhibition assay, broad cancer cell line panel (OncoPanel; CellTiter-Glo)
Format: cell-based
Design: key to Emax: % of DMSO control (minimum response over dose range); AUC: scale not given here
Settings: for AUC / Emax: 168 hours; for Emax: in % (unit assumed)
Method: In a larger screening study, compound 1 was evaluated across a broad cancer cell line panel (OncoPanel; HD Biosciences) composed of 301 cancer cell lines from different tumor types.
2D cell viability inhibition assays were performed in multiwell plates seeded with cells from the panel. After seeding, the plates were cultured overnight in a humidified incubator at 37° C. to promote adherence. Assays were initiated in individual wells by adding either DMSO as a vehicle control, growth media as a blank, or serially diluted compound 1 (10 μM to 0.0005 μM with 1:3 serial dilution). Cultures were incubated for 168 hours after which the number of viable cells in each test well was assessed using the CellTiter-Glo® Luminescent Cell Viability Assay. Luminescence readouts were performed using an EnVision® Multilabel Reader and the compound 1 readouts were normalized to the DMSO control readouts, expressed as a percent of the control. Outliers were flagged out by visual inspection. Percent of control was plotted against the corresponding compound 1 concentration and the absolute IC50 value was determined using four-parameter logistic non-linear regression as the concentration where inhibition was 50% of the control. […] Emax was recorded as the minimum in y with the compound dose range. […] The sensitive/moderate/resistant calls for each cell line was determined by visually inspecting the resulting clustering dendrogram. All the analyses were done in R Core Team.

[1] = Homo sapiens, NCI-H1650, 168 h, NCIH1650 (lung, bronchioloalveolar adenocarcinoma)
[2] = Homo sapiens, NCI-H1755, 168 h, NCIH1755 (lung, adenocarcinoma)
[3] = Homo sapiens, NCI-H1838, 168 h, NCIH1838 (lung, non-small cell carcinoma)
[4] = Homo sapiens, NCI-H2009, 168 h, NCIH2009 (lung, adenocarcinoma)
[5] = Homo sapiens, ONS-76, 168 h, ONS76 (central nervous system, NS)
[6] = Homo sapiens, OVCAR-3, 168 h, NIHOVCAR3 (ovary, NS)
[7] = Homo sapiens, RPMI-7951, 168 h, RPMI7951 (skin, NS)
[8] = Homo sapiens, SAOS-2, 168 h, SAOS2 (bone, NS)
[9] = Homo sapiens, SCC-9, 168 h, SCC9 (upper aerodigestive tract, squamous cell carcinoma)
[10] = Homo sapiens, SCC-15, 168 h, SCC15 (upper aerodigestive tract, squamous cell carcinoma)
[11] = Homo sapiens, SCC-25, 168 h, SCC25 (upper aerodigestive tract, squamous cell carcinoma)
[12] = Homo sapiens, SK-HEP1, 168 h, SKHEP1 (liver, adenocarcinoma)
[13] = Homo sapiens, SK-MEL-24, 168 h, SKMEL24 (skin, NS)
[14] = Homo sapiens, SK-N-SH, 168 h, SKNSH (autonomic ganglia, NS)
[15] = Homo sapiens, SK-OV-3, 168 h, SKOV3 (ovary, adenocarcinoma)
[16] = Homo sapiens, SNU-C1, 168 h, SNUC1 (large intestine, adenocarcinoma)
[17] = Homo sapiens, SW837, 168 h, SW837 (large intestine, adenocarcinoma)
[18] = Homo sapiens, SW1417, 168 h, SW1417 (large intestine, adenocarcinoma)
[19] = Homo sapiens, TE-15, 168 h, TE15 (oesophagus, squamous cell carcinoma)
[20] = Homo sapiens, UACC-812, 168 h, UACC812 (breast, ductal carcinoma)
[21] = Homo sapiens, VCaP, 168 h, VCAP (prostate, adenocarcinoma)
[22] = KASUMI1 (haematopoietic and lymphoid tissue, acute myeloid leukaemia)
[23] = KG1 (haematopoietic and lymphoid tissue, acute myeloid leukaemia)
[24] = KURAMOCHI (ovary, undifferentiated carcinoma)
[25] = KYSE70 (oesophagus, squamous cell carcinoma)
[26] = LU99 (lung, large cell carcinoma)
[27] = MDAMB157 (breast, ductal carcinoma)
[28] = MDAMB 175 VII (breast, ductal carcinoma)
[29] = NCI-H1435, 168 h, NCIH1435 (lung, non-small cell carcinoma)

SMILES: CC(C)c1ccc(N(C)c2ccc3c(c2)OCC[C@H]3CNc2cnccc2C(=O)O)cc1 [Compound 1, 3-({[(4R)-7-{methyl[4-(propan-2-yl)phenyl]amino}-3,4-dihydro-2H-1-benzopyran-4-yl]methyl}amino)pyridine-4-carboxylic acid]
- EC50 [1]: ≥ 10 µM
- IC50 [1]: ≥ 10 µM
- EC50 [2]: ≥ 10 µM
- IC50 [2]: ≥ 10 µM
- EC50 [3]: ≥ 10 µM
- IC50 [3]: ≥ 10 µM
- EC50 [4]: 8.02 µM
- IC50 [4]: ≥ 10 µM
- EC50 [5]: ≥ 10 µM
- IC50 [5]: ≥ 10 µM
- EC50 [6]: ≥ 10 µM
- IC50 [6]: ≥ 10 µM
- EC50 [7]: ≥ 10 µM
- IC50 [7]: ≥ 10 µM
- EC50 [8]: ≥ 10 µM
- IC50 [8]: ≥ 10 µM
- EC50 [9]: ≥ 10 µM
- IC50 [9]: ≥ 10 µM
- EC50 [10]: ≥ 10 µM
- IC50 [10]: ≥ 10 µM
- EC50 [11]: ≥ 10 µM
- IC50 [11]: ≥ 10 µM
- EC50 [12]: ≥ 10 µM
- IC50 [12]: ≥ 10 µM
- EC50 [13]: ≥ 10 µM
- IC50 [13]: ≥ 10 µM
- EC50 [14]: ≥ 10 µM
- IC50 [14]: ≥ 10 µM
- EC50 [15]: ≥ 10 µM
- IC50 [15]: ≥ 10 µM
- EC50 [16]: ≥ 10 µM
- IC50 [16]: ≥ 10 µM
- EC50 [17]: ≥ 10 µM
- IC50 [17]: ≥ 10 µM
- EC50 [18]: ≥ 10 µM
- IC50 [18]: ≥ 10 µM
- EC50 [19]: ≥ 10 µM
- IC50 [19]: ≥ 10 µM
- EC50 [20]: 6.95 µM
- IC50 [20]: ≥ 10 µM
- EC50 [21]: ≥ 10 µM
- IC50 [21]: ≥ 10 µM
- AUC [22]: 0.8823
- Emax [22]: 81.08
- AUC [23]: 0.9592
- Emax [23]: 80.44
- AUC [24]: 0.8742
- Emax [24]: 73.85
- AUC [25]: 0.6942
- Emax [25]: 50.19
- AUC [26]: 0.79
- Emax [26]: 64.66
- AUC (MALME3M (skin, NS)): 0.9867
- Emax (MALME3M (skin, NS)): 94.08
- AUC [27]: 0.8362
- Emax [27]: 64.71
- AUC [28]: 0.7385
- Emax [28]: 60.66
- AUC (MDAMB231 (breast, NS)): 0.7262
- Emax (MDAMB231 (breast, NS)): 55.94
- AUC (MDAMB361 (breast, NS)): 1.117
- Emax (MDAMB361 (breast, NS)): 94.55
- AUC (MDAMB415 (breast, NS)): 0.9413
- Emax (MDAMB415 (breast, NS)): 83.39
- AUC (MDAMB436 (breast, NS)): 0.8438
- Emax (MDAMB436 (breast, NS)): 70.42
- AUC (MDAMB468 (breast, NS)): 0.6972
- Emax (MDAMB468 (breast, NS)): 50.87
- AUC (MEWO (skin, NS)): 0.7237
- Emax (MEWO (skin, NS)): 56.56
- EC50 [29]: ≥ 10 µM
- IC50 [29]: ≥ 10 µM
